Results reported in patent EP1478365B1 (Nowak, Götz, priority 2002, dated 2003).

Tested on: Dottersackgefäßsystem von Hühnerembryonen
Experiment: animal or person
Settings: for Hemmung: time point not stated
Excerpt: Cyproheptadin (Peritol®) wird aufgrund seiner zentralen Wirkung als Appetitsstimulanz in der Klinik verwendet. Als Nebenwirkungen waren bisher im wesentlichen sedierende Effekte bekannt. […] Zur Wirkungsanalyse wurde die Gefäßentwicklung der Dottersackmembran von befruchteten Hühnereiern benutzt. Das Modell hat den Vorteil, daß die Entwicklung dieses primären Gefäßsystems der Hühnerembryonen Kapillaren erzeugt, die eine große Ähnlichkeit mit Tumorgefäßen haben. Diese Kapillaren sind stärker fenestriert und sind anatomisch den Tumorvaskularitäten ähnlich.
Bei 30 ex ovo bebrüteten Hühnereiern werden jeweils auf zwei Bereiche des Dottersackgefäßsystems 1,5 µl eines 3%igen Traganth-Gels, in dem Cyproheptadin in der zu untersuchenden Konzentration eingebracht wurde, appliziert. Bei weiterer Bebrütung in einem Sterilinkubator bei 37°C und 85% Luftfeuchtigkeit entwickeln sich die pre- bzw. postkapillären Gefäßstrukturen der Dottersackvaskularitäten, die 9 h und 24 h post applicationem semiquantitativ bewertet werden.
Ebenfalls nach 9 h und 24 h werden die Applikationsstellen bewertet.

SMILES: CN1CCC(=C2c3ccccc3C=Cc3ccccc32)CC1 [Cyproheptadin]
- Wirkung 24 h nach Applikation (24 h values compared with 9 h values): in leicht abgeschwächter Form noch vorhanden
- Emax (Gallus gallus, read-out: maximale Wirkungsstärke): 76%
- Hemmung der Dottersackangiogenese, wirksame Konzentrationen (effective concentration range in words): in nanomolaren Konzentrationen
- Hemmung (single substance at its IC 25 concentration): 20,3%
- Hemmung (single substance at its IC 50 concentration): 37,9%
- Hemmung (single substance at its IC 75 concentration): 65,8%
- Hemmung (single substance at its IC 100 concentration): 76,6%
- Angiogenese bei sehr hohen Konzentrationen (very high concentrations): totale Verhinderung einer Angiogenese
